Assay results published in PubChem BioAssay (NCI).
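Tested at 5 concentrations; 48 h exposure; 96-well plates; endpoints linearly interpolated, else capped at highest concentration. Abbreviation: GI50, concentration required for 50% inhibition of growth. TGI denotes the concentration required for complete inhibition of growth.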

Experiments:
Experiment in all cases: DTP human tumour cell line panel, 48 h
RPMI-8226 leukemia = tested on: RPMI-8226 leukemia
BT-549 breast = tested on: BT-549 breast
OVCAR-5 ovarian = tested on: OVCAR-5 ovarian
SK-MEL-2 melanoma = tested on: SK-MEL-2 melanoma
IGROV1 ovarian = tested on: IGROV1 ovarian
HCT-15 colon = tested on: HCT-15 colon
K-562 leukemia = tested on: K-562 leukemia
HOP-62 NSCLC = tested on: HOP-62 NSCLC
HL-60(TB) leukemia = tested on: HL-60(TB) leukemia
CAKI-1 renal = tested on: CAKI-1 renal
RXF 393 renal = tested on: RXF 393 renal
A549 NSCLC = tested on: A549 NSCLC
HT29 colon = tested on: HT29 colon
SF-539 CNS = tested on: SF-539 CNS
UO-31 renal = tested on: UO-31 renal
SNB-75 CNS = tested on: SNB-75 CNS
SNB-19 CNS = tested on: SNB-19 CNS
MOLT-4 leukemia = tested on: MOLT-4 leukemia
COLO 205 colon = tested on: COLO 205 colon
SW-620 colon = tested on: SW-620 colon
UACC-257 melanoma = tested on: UACC-257 melanoma
ACHN renal = tested on: ACHN renal
SK-MEL-28 melanoma = tested on: SK-MEL-28 melanoma
UACC-62 melanoma = tested on: UACC-62 melanoma
U251 CNS = tested on: U251 CNS
TK-10 renal = tested on: TK-10 renal
HOP-92 NSCLC = tested on: HOP-92 NSCLC
SK-OV-3 ovarian = tested on: SK-OV-3 ovarian
SN12C renal = tested on: SN12C renal
SF-268 CNS = tested on: SF-268 CNS
786-0 renal = tested on: 786-0 renal
OVCAR-3 ovarian = tested on: OVCAR-3 ovarian
CCRF-CEM leukemia = tested on: CCRF-CEM leukemia
NCI-H23 lung = tested on: NCI-H23 lung
OVCAR-4 ovarian = tested on: OVCAR-4 ovarian
PC-3 prostate = tested on: PC-3 prostate
HCT-116 colon = tested on: HCT-116 colon
SF-295 CNS = tested on: SF-295 CNS
MDA-MB-231 breast = tested on: MDA-MB-231 breast
NCI-H522 lung = tested on: NCI-H522 lung
T-47D breast = tested on: T-47D breast
LOX IMVI melanoma = tested on: LOX IMVI melanoma
HS 578T breast = tested on: HS 578T breast
MALME-3M melanoma = tested on: MALME-3M melanoma
DU-145 prostate = tested on: DU-145 prostate
MCF7 breast = tested on: MCF7 breast
HCC-2998 colon = tested on: HCC-2998 colon
KM12 colon = tested on: KM12 colon
M14 melanoma = tested on: M14 melanoma
SR leukemia = tested on: SR leukemia
NCI/ADR-RES ovarian = tested on: NCI/ADR-RES ovarian
MDA-MB-435 = tested on: MDA-MB-435
A498 renal = tested on: A498 renal
SK-MEL-5 melanoma = tested on: SK-MEL-5 melanoma
OVCAR-8 ovarian = tested on: OVCAR-8 ovarian
NCI-H226 lung = tested on: NCI-H226 lung
NCI-H460 lung = tested on: NCI-H460 lung

## Cc1cc([N+](=O)[O-])ccc1NS(=O)(=O)c1cc(Cl)ccc1Cl
RPMI-8226 leukemia
  GI50: 1.9 µM
  TGI: 6.88 µM
BT-549 breast
  GI50: 2.48 µM
  TGI: 14 µM
OVCAR-5 ovarian
  GI50: 5.1 µM
  TGI: > 100 µM
SK-MEL-2 melanoma
  GI50: 2.67 µM
  TGI: 8.56 µM
IGROV1 ovarian
  GI50: 4.61 µM
  TGI: > 100 µM
HCT-15 colon
  GI50: 2.92 µM
  TGI: 13.1 µM
K-562 leukemia
  GI50: 3.56 µM
  TGI: > 100 µM
HOP-62 NSCLC
  GI50: 3.21 µM
  TGI: 16.1 µM
HL-60(TB) leukemia
  GI50: 3.13 µM
  TGI: 12.8 µM
CAKI-1 renal
  GI50: 2.54 µM
  TGI: > 28.4 µM
RXF 393 renal
  GI50: 2.98 µM
  TGI: 18.5 µM
A549 NSCLC
  GI50: 2.91 µM
  TGI: > 51 µM
HT29 colon
  GI50: 3.81 µM
  TGI: > 100 µM
SF-539 CNS
  GI50: 3.45 µM
  TGI: 20.7 µM
UO-31 renal
  GI50: 2.97 µM
  TGI: 17 µM
SNB-75 CNS
  GI50: 2.98 µM
  TGI: 38.3 µM
SNB-19 CNS
  GI50: 3.4 µM
  TGI: > 100 µM
MOLT-4 leukemia
  GI50: 4.03 µM
  TGI: 20.1 µM
COLO 205 colon
  GI50: 3.23 µM
  TGI: 12.3 µM
SW-620 colon
  GI50: 4.36 µM
  TGI: > 100 µM
UACC-257 melanoma
  GI50: 2.02 µM
  TGI: 7.55 µM
ACHN renal
  GI50: 3.18 µM
  TGI: > 100 µM
SK-MEL-28 melanoma
  GI50: 5.17 µM
  TGI: > 94.6 µM
UACC-62 melanoma
  GI50: 1.29 µM
  TGI: 17.9 µM
U251 CNS
  GI50: 2.9 µM
  TGI: 17.4 µM
TK-10 renal
  GI50: 3.54 µM
  TGI: 75.2 µM
HOP-92 NSCLC
  GI50: 0.666 µM
  TGI: 3.81 µM
SK-OV-3 ovarian
  GI50: 2.51 µM
  TGI: 8.63 µM
SN12C renal
  GI50: 2.87 µM
  TGI: > 100 µM
SF-268 CNS
  GI50: 4.49 µM
  TGI: > 100 µM
786-0 renal
  GI50: 3.03 µM
  TGI: 22.6 µM
OVCAR-3 ovarian
  GI50: 3.24 µM
  TGI: > 46.6 µM
CCRF-CEM leukemia
  GI50: 3.47 µM
  TGI: > 72.4 µM
NCI-H23 lung
  GI50: 3 µM
  TGI: 9.99 µM
OVCAR-4 ovarian
  GI50: 2.42 µM
  TGI: > 30.8 µM
PC-3 prostate
  GI50: 2.73 µM
  TGI: 21.1 µM
HCT-116 colon
  GI50: 2.85 µM
  TGI: 11.9 µM
SF-295 CNS
  GI50: 2.46 µM
  TGI: 9.26 µM
MDA-MB-231 breast
  GI50: 3.36 µM
  TGI: 16.2 µM
NCI-H522 lung
  GI50: 2.44 µM
  TGI: 8.68 µM
T-47D breast
  GI50: 1.92 µM
  TGI: 8.01 µM
LOX IMVI melanoma
  GI50: 3.44 µM
  TGI: 13 µM
HS 578T breast
  GI50: 4.23 µM
  TGI: 60.5 µM
MALME-3M melanoma
  GI50: 2.33 µM
  TGI: 6.83 µM
DU-145 prostate
  GI50: 5.37 µM
  TGI: > 100 µM
MCF7 breast
  GI50: 2.51 µM
  TGI: > 49.4 µM
HCC-2998 colon
  GI50: 4.28 µM
  TGI: 18 µM
KM12 colon
  GI50: 4.04 µM
  TGI: 34.5 µM
M14 melanoma
  GI50: 3.66 µM
  TGI: 33.4 µM
SR leukemia
  GI50: 4.52 µM
  TGI: 27.6 µM
NCI/ADR-RES ovarian
  GI50: 3.07 µM
  TGI: 17.5 µM
MDA-MB-435
  GI50: 2.77 µM
  TGI: 36.6 µM
A498 renal
  GI50: 1.43 µM
  TGI: 6.24 µM
SK-MEL-5 melanoma
  GI50: 1.54 µM
  TGI: 3.83 µM
OVCAR-8 ovarian
  GI50: 3.65 µM
  TGI: > 100 µM
NCI-H226 lung
  GI50: 2.87 µM
  TGI: 14.3 µM
NCI-H460 lung
  GI50: 2.97 µM
  TGI: > 43.6 µM
